Laboratory results as given in patent US20120101100A1 (priority 2008, published 2012).
Values after ≈ are worked out from the molar mass of the structure shown. Structures can show the parent of a compound that is named as a salt. Where two headings read alike, the source gives them in different places.

Columns and labels:
S. aureus GyrB ATPase = S. aureus GyrB ATPase (Staphylococcus aureus, UniProt P0A0K8); assay: S. aureus (SAU) GyrB ATPase inhibition, malachite green phosphate detection (E. coli GyrA + S. aureus GyrB); assay type: biochemical; settings: for inhibition at 1 µM: read-out: S. aureus (SAU) GyrB ATPase % Inhibition
Sequence of S. aureus GyrB ATPase (P0A0K8 whole entry): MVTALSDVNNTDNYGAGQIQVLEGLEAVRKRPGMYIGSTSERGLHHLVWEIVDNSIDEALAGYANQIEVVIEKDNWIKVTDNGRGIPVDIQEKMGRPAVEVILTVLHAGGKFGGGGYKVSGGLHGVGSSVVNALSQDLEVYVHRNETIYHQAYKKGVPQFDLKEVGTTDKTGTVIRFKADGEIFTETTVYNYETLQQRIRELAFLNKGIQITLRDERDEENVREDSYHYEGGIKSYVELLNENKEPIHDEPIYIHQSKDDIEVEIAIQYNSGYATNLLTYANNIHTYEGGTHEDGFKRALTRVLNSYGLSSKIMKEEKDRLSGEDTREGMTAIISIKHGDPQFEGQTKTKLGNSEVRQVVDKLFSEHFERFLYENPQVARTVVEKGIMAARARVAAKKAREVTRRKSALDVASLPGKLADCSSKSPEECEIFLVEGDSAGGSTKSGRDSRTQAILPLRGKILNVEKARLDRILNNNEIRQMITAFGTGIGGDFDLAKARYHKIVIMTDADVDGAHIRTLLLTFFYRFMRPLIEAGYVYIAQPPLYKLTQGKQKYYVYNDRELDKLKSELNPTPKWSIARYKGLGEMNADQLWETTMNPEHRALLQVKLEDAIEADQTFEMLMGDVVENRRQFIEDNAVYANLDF
Sequence of S. aureus GyrB ATPase (P0AES4 whole entry, further chain): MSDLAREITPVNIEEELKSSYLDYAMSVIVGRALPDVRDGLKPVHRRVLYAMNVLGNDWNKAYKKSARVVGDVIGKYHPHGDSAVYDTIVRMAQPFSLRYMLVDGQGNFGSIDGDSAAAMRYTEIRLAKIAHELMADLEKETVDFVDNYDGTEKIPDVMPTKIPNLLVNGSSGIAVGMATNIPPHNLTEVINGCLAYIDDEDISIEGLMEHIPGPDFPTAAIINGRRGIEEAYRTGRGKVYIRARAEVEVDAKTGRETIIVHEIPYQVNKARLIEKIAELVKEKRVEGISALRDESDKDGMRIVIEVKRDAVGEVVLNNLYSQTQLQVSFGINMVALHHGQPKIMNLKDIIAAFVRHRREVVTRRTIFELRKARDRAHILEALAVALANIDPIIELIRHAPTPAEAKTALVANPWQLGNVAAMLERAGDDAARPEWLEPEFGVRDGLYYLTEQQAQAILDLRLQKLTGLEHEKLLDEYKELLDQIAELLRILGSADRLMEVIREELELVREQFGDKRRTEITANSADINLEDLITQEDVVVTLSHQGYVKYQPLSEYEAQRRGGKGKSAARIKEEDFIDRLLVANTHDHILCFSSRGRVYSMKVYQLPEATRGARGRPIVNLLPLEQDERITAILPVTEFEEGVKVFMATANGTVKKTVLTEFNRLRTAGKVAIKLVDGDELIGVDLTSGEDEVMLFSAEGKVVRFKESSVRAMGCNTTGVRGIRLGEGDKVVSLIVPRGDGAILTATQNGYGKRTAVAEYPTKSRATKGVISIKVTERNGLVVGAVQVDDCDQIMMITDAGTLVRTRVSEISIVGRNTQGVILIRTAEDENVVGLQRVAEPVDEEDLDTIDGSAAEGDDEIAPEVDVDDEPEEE
Summary of the method: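 E. coli GyrA and S. aureus GyrB (1.25 nM each) with 500 μM ATP and 5 μg/ml sheared salmon sperm DNA in 50 mM Hepes pH 7.5, 8.0 mM MgCl2. Released phosphate detected with ammonium molybdate/malachite green at 650 nm; 2% DMSO as 0% and 2 μM novobiocin as 100% inhibition; IC50 from 10 concentrations.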

Streptococcus pneumoniae = assay: Bacterial susceptibility testing in liquid media (MIC); assay type: cell-based; settings: against Streptococcus pneumoniae; lowest concentration reducing growth by 80% or more; 37° C., 24 hrs
Experimental: Compounds were tested for antimicrobial activity by susceptibility testing in liquid media. Compounds were dissolved in dimethylsulfoxide and tested in 10 doubling dilutions in the susceptibility assays. The organisms used in the assay were grown overnight on suitable agar media and then suspended in a liquid medium appropriate for the growth of the organism. The suspension was a 0.5 McFarland and a further 1 in 10 dilution was made into the same liquid medium to prepare the final organism suspension in 100 μL. Plates were incubated under appropriate conditions at 37° C. for 24 hrs prior to reading. The Minimum Inhibitory Concentration was determined as the lowest drug concentration able to reduce growth by 80% or more.

[1] = compound concentration of 1.0 μM unless otherwise noted, average value where assay was carried out more than once

Compound	inhibition at 1 µM (S. aureus GyrB ATPase; [1])	also measured
CCNC(=O)Nc1cc(-c2nc(C(F)(F)F)cs2)c(-c2cccnc2)cn1 [Example 14, 1-Ethyl-3-(4-(4-(trifluoromethyl)thiazol-2-yl)-3,3′-bipyridin-6-yl)urea]	86%	IC50 (S. aureus GyrB ATPase; 10 compound concentrations, 500 μM ATP): 10 nM; MIC (Streptococcus pneumoniae): 0.39 µM (≈ 0.153 µg/mL)
CCNC(=O)Nc1cc(-c2nc(-c3ccncc3)cs2)c(-c2cncc(-c3n[nH]c(=O)o3)c2)cn1 [Example 39, N-ethyl-N′-[5′-(5-oxo-4,5-dihydro-1,3,4-oxadiazol-2-yl)-4-(4-pyridin-4-yl-1,3-thiazol-2-yl)-3,3′-bipyridin-6-yl]urea]	102%	
CCNC(=O)Nc1cc(-c2nc(-c3ccccn3)cs2)c(-c2nc(-c3ncccn3)c(-c3n[nH]c(=O)o3)s2)cn1 [Example 201]	107%	
CCCNC(=O)Nc1cc(-c2nc(C(F)(F)F)cs2)c(-c2cc(-c3n[nH]c(=O)o3)cnc2OCCN2CCCC2)cn1 [Example 171]	106%	
CCNC(=O)Nc1cc(C2=NC(OC)(C(F)(F)F)CS2)c(-c2cncc(-c3n[nH]c(=O)o3)c2)cn1 (stereo not shown) [Example 143]	98%	
CCNC(=O)Nc1cc(-c2nc(C(F)(F)F)c(CNC3CCOCC3)s2)c(-c2cncc(-c3nnc(C)o3)c2)cn1 [Example 58, 1-ethyl-3-(5′-(5-methyl-1,3,4-oxadiazol-2-yl)-4-(5-((tetrahydro-2H-pyran-4-ylamino)methyl)-4-(trifluoromethyl)thiazol-2-yl)-3,3′-bipyridin-6-yl)urea]	97%	
CCNC(=O)Nc1cc(-c2nc(C(F)(F)F)cs2)c(-c2cc(-c3n[nH]c(=O)o3)c[n+]([O-])c2)cn1 [Example 139]		inhibition at 1 µM (S. aureus GyrB ATPase): 103%
CCNC(=O)Nc1cc(-c2nc(C(F)(F)F)cs2)c(-c2cncc(-c3c[nH]nc3C)c2)cn1 [Example 132]	92%	
CCNC(=O)Nc1cc(-c2nc(C(F)(F)F)cs2)c(-c2cncc(-c3c[nH]c(=O)[nH]c3=O)c2)cn1 [Example 131, 1-(5′-(2,4-Dioxo-1,2,3,4-tetrahydropyrimidin-5-yl)-4-(4-(trifluoromethyl)thiazol-2-yl)-3,3′-bipyridin-6-yl)-3-ethylurea]	93%	
CCNC(=O)Nc1cc(-c2nc(C(F)(F)F)cs2)c(-c2ccnc(-c3nnc([C@@H](N)C4CCCCC4)o3)c2)cn1 [Example 241, (S)-1-(2′-(5-(amino(cyclohexyl)methyl)-1,3,4-oxadiazol-2-yl)-4-(4-(trifluoromethyl)thiazol-2-yl)-3,4′-bipyridin-6-yl)-3-ethylurea]	97%	
CCNC(=O)Nc1cc(-c2nc(C(F)(F)F)c(CNCCOC)s2)c(-c2cncc(-c3nnc(C)o3)c2)cn1 [Example 54, 1-ethyl-3-(4-(5-((2-methoxyethylamino)methyl)-4-(trifluoromethyl)thiazol-2-yl)-5′-(5-methyl-1,3,4-oxadiazol-2-yl)-3,3′-bipyridin-6-yl)urea]	97%	
CCNC(=O)Nc1cc(-c2nc(C(F)(F)F)cs2)c(-c2cnc(OC)c(-c3n[nH]c(=O)o3)c2)cn1 [Example 189]	103%	
CCNC(=O)Nc1cc(-c2nc(C(F)(F)F)cs2)c(-c2cncc(C3=NNC(=O)CO3)c2)cn1 [Example 282, 1-ethyl-3-(5′-(5-oxo-5,6-dihydro-4H-1,3,4-oxadiazin-2-yl)-4-(4-(trifluoromethyl)thiazol-2-yl)-3,3′-bipyridin-6-yl)urea]	96%	
CCNC(=O)Nc1cc(-c2nc(C(F)(F)F)cs2)c(-c2cc(OC(C)C)nc(-c3nnc(C)o3)c2)cn1 [Example 80, 1-ethyl-3-(2′-isopropoxy-6′-(5-methyl-1,3,4-oxadiazol-2-yl)-4-(4-(trifluoromethyl)thiazol-2-yl)-3,4′-bipyridin-6-yl)urea]	96%	
CCNC(=O)Nc1cc(-c2nc(C(F)(F)F)cs2)c(-c2cncc(-c3nc(C)no3)c2)cn1 [Example 8]	95%	
CCNC(=O)Nc1cc(-c2nc(-c3cnn(C)c3)cs2)c(-c2cncc(-c3nnc(C)o3)c2)cn1 [Example 233, 1-ethyl-3-(5′-(5-methyl-1,3,4-oxadiazol-2-yl)-4-(4-(1-methyl-1H-pyrazol-4-yl)thiazol-2-yl)-3,3′-bipyridin-6-yl)urea]	100%	

Compound	inhibition at 1 µM (S. aureus GyrB ATPase; [1])	also measured
CCNC(=O)Nc1cc(-c2nc(C(F)(F)F)cs2)c(-c2nc(-c3ncccn3)c(-c3n[nH]c(=O)o3)s2)cn1 [Example 36, 1-ethyl-3-(5-(5-(5-oxo-4,5-dihydro-1,3,4-oxadiazol-2-yl)-4-(pyrimidin-2-yl)thiazol-2-yl)-4-(4-(trifluoromethyl)thiazol-2-yl)pyridin-2-yl)urea]	107%	
CCNC(=O)Nc1cc(-c2nnc(-c3ccc(F)cc3)o2)c(-c2cncc(-c3n[nH]c(=O)o3)c2)cn1 [Example 198]	104%	
CCNC(=O)Nc1cc(-c2nc(C(F)(F)F)cs2)c(-c2cncc(-c3c(C)noc3C)c2)cn1 [Example 133]	104%	
CCNC(=O)Nc1cc(-c2cn(Cc3ccccc3)nn2)c(-c2cc(-c3n[nH]c(=O)o3)ccn2)cn1 [Example 288]	91%	
CCNC(=O)Nc1cc(-c2nc(C(F)(F)F)cs2)c(-c2cc(-c3n[nH]c(=O)o3)cnc2CC)cn1 [Example 71, 1-ethyl-3-(2′-ethyl-5′-(5-hydroxy-1,3,4-oxadiazol-2-yl)-4-(4-(trifluoromethyl)thiazol-2-yl)-3,3′-bipyridin-6-yl)urea]	93%	
CCNC(=O)Nc1cc(-c2nc(C(F)(F)F)cs2)c(-c2ccc3nccnc3c2)cn1 [Example 13]	103%	
CCNC(=O)Nc1cc(-c2nc(C(F)(F)F)cs2)c(-c2cc(OCC3CC3)nc(-c3n[nH]c(=O)o3)c2)cn1 [Example 83, 1-(2′-(cyclopropylmethoxy)-6′-(5-oxo-4,5-dihydro-1,3,4-oxadiazol-2-yl)-4-(4-(trifluoromethyl)thiazol-2-yl)-3,4′-bipyridin-6-yl)-3-ethylurea]	94%	
CCNC(=O)Nc1cc(-c2nc(C(F)(F)F)cs2)c(-c2cncc(-c3noc(=O)[nH]3)c2)cn1 [Example 19, 1-Ethyl-3-(5′-(5-oxo-4,5-dihydro-1,2,4-oxadiazol-3-yl)-4-(4-(trifluoromethyl)thiazol-2-yl)-3,3′-bipyridin-6-yl)urea]		inhibition at 1 µM (S. aureus GyrB ATPase): 110%
CCNC(=O)Nc1cc(-c2nc(-c3cccc(OC)n3)cs2)c(-c2cncc(-c3n[nH]c(=O)o3)c2)cn1 [Example 202]	43%	
CCNC(=O)Nc1cc(-c2nc(C(F)(F)F)cs2)c(-c2ncc(-c3n[nH]c(=O)o3)s2)cn1 [Example 9, 1-ethyl-3-(5-(5-(5-oxo-4,5-dihydro-1,3,4-oxadiazol-2-yl)thiazol-2-yl)-4-(4-(trifluoromethyl)thiazol-2-yl)pyridin-2-yl)urea]	106%	
CCNC(=O)Nc1cc(-c2nc(C(F)(F)F)c(CNCCN3CCOCC3)s2)c(-c2cncc(-c3n[nH]c(=O)o3)c2)cn1 [Example 51, 1-ethyl-3-(5′-(5-hydroxy-1,3,4-oxadiazol-2-yl)-4-(5-((2-morpholinoethylamino)methyl)-4-(trifluoromethyl)thiazol-2-yl)-3,3′-bipyridin-6-yl)urea trihydrochloride]	98%	
CCNC(=O)Nc1cc(-c2nc(-c3ccccc3)cs2)c(-c2nc(-c3ncccn3)c(-c3n[nH]c(=O)o3)s2)cn1 [Example 199]	94%	
CCNC(=O)Nc1cc(-c2nc(C(F)(F)F)cs2)c(-c2cncc(-c3nnc([C@@H](N)C(C)C)o3)c2)cn1 [Example 183]	96%	
CCNC(=O)Nc1cc(-c2nc(C(F)(F)F)c(C)s2)c(-c2cc(-c3nnc(C)o3)cnc2OC2CCOCC2)cn1 [Example 142]	96%	
CCNC(=O)Nc1cc(-c2nc(C(F)(F)F)cs2)c(-c2c[nH]c(=O)c(-c3nnc(C)o3)c2)cn1 [Example 261, 1-ethyl-3-(5-(5-(5-methyl-1,3,4-oxadiazol-2-yl)-6-oxo-1,6-dihydropyridin-3-yl)-4-(4-(trifluoromethyl)thiazol-2-yl)pyridin-2-yl)urea]	96%	
CCNC(=O)Nc1cc(-c2nc(C(F)(F)F)cs2)c(-c2cnc(OCCOC)c(-c3n[nH]c(=O)o3)c2)cn1 [Example 254]	97%	
